In patent US7592160B2, “Processes for producing isomaltose and isomaltitol and use thereof” (Kabushiki Kaisha Hayashibara Seibutsu Kagaku Kenkyujo, priority 2001, dated 2009):

Assays:
[1] = tested on: α-isomaltosylglucosaccharide-forming enzyme; experiment: Influence of metal ions on α-isomaltosylglucosaccharide-forming enzyme activity (C9 strain); assay type: biochemical, Bacillus globisporus C9 strain; conditions: for effect on the enzyme activity, in words: 1 mM, Table 3; for Relative activity (%): in the presence of 1 mM of each metal-ion, None = 100
Procedure: (§1) About 20 L of a fresh preparation of the same liquid culture medium as used in the above seed culture were placed in a 30-L fermentor, sterilized by heating, and then cooled to 27° C. and inoculated with 1% (v/v) of the seed culture, followed by culturing at 27° C. and pH 6.0 to 8.0 for 48 hours under aeration-agitation conditions. […] These activities were assayed as follows: The activity of α-isomaltosylglucosaccharide-forming enzyme was assayed by dissolving maltotriose in 100 mM acetate buffer (pH 6.0) to give a concentration of 2% (w/v) for a substrate solution, adding a 0.5 ml of an enzyme solution to a 0.5 ml of the substrate solution, enzymatically reacting the mixture solution at 35° C. for 60 min, suspending the enzymatic reaction by boiling the solution for 10 min, and quantifying maltose, among the isomaltosyl maltose and maltose formed mainly in the reaction mixture, on HPLC disclosed in Experiment 1. One unit activity of α-isomaltosylglucosaccharide-forming enzyme is defined as the enzyme amount that forms one micromole of maltose per minute under the above enzymatic reaction conditions. Throughout the specification, the enzymatic activity of α-isomaltosylglucosaccharide-forming enzyme means the unit(s) assayed as above.
(§2) The influence of metal ions on the activity of α-isomaltosylglucosaccharide-forming enzyme was examined in the presence of 1 mM of each metal-ion according to the assay for its enzyme activity.

[2] = tested on: α-isomaltosyl-transferring enzyme; experiment: Influence of metal ions on α-isomaltosyl-transferring enzyme activity (C9 strain); assay type: biochemical, Bacillus globisporus C9 strain; conditions: for Relative activity (%): in the presence of 1 mM of each metal-ion, None = 100; for effect on the enzyme activity, in words: 1 mM, Table 4
Procedure: (§3) The activity of α-isomaltosyl-transferring enzyme was assayed by dissolving panose in 100 mM acetate buffer (pH 6.0) to give a concentration of 2% (w/v) for a substrate solution, adding a 0.5 ml of an enzyme solution to 0.5 ml of the substrate solution, enzymatically reacting the mixture solution at 35° C. for 30 min, suspending the enzymatic reaction by boiling the solution for 10 min, and quantifying glucose, among the cyclotetrasaccharide and glucose formed mainly in the reaction mixture, by the glucose oxidase method. One unit activity of α-isomaltosyl-transferring enzyme is defined as the enzyme amount that forms one micromole of glucose per minute under the above enzymatic reaction conditions. Throughout the specification, the enzymatic activity of α-isomaltosyl-transferring enzyme means the unit(s) assayed as above.
(§4) The influence of metal ions on the activity of α-isomaltosyl-transferring enzyme was examined in the presence of 1 mM of each metal-ion according to the assay for its enzyme activity.

[3] = tested on: α-isomaltosylglucosaccharide-forming enzyme; experiment: Influence of metal ions on α-isomaltosylglucosaccharide-forming enzyme activity (C11 strain); assay type: biochemical, Bacillus globisporus C11 strain; conditions: for effect on the enzyme activity, in words: 1 mM, Table 7; for Relative activity (%): in the presence of 1 mM of each metal-ion, None = 100
[4] = tested on: α-isomaltosyl-transferring enzyme; experiment: Influence of metal ions on α-isomaltosyl-transferring enzyme activity (C11 strain); assay type: biochemical, Bacillus globisporus C11 strain; conditions: for Relative activity (%): in the presence of 1 mM of each metal-ion, None = 100; for effect on the enzyme activity, in words: 1 mM, text on Table 8
Procedure: as §3, §4

[5] = tested on: α-isomaltosylglucosaccharide-forming enzyme; experiment: Influence of metal ions on α-isomaltosylglucosaccharide-forming enzyme activity (N75 strain); assay type: biochemical, Bacillus globisporus N75 strain; conditions: for Relative activity (%): in the presence of 1 mM of each metal-ion, None = 100; for effect on the enzyme activity, in words: 1 mM, Table 13
Procedure: as §1, §2

[6] = tested on: α-isomaltosyl-transferring enzyme; experiment: Influence of metal ions on α-isomaltosyl-transferring enzyme activity (N75 strain); assay type: biochemical, Bacillus globisporus N75 strain; conditions: for Relative activity (%): in the presence of 1 mM of each metal-ion, None = 100; for effect on the enzyme activity, in words: 1 mM, Table 14
Procedure: as §3
The influence of temperature and pH on the activity of α-isomaltosyl-transferring enzyme was examined in accordance with the assay for its enzyme activity. […] The thermal stability of the enzyme was determined by incubating the testing enzyme solutions in the form of 20 mM acetate buffer (pH 6.0) at prescribed temperatures for 60 min, cooling the resulting enzyme solutions with water, and assaying the remaining enzyme activity of each solution. The pH stability of the enzyme was determined by keeping the testing enzyme solutions in the from of 50 mM buffers having prescribed pHs at 4° C. for 24 hours, adjusting the pH of each solution to 6.0, and assaying the remaining enzyme activity of each solution. […] The influence of metal ions on the activity of α-isomaltosyl-transferring enzyme was examined in the presence of 1 mM of each metal-ion according to the assay for its enzyme activity.

[7] = tested on: α-isomaltosylglucosaccharide-forming enzyme; experiment: Influence of metal ions on α-isomaltosylglucosaccharide-forming enzyme activity (A19 strain); assay type: biochemical, Arthrobacter globiformis A19 strain; conditions: for Relative activity (%): in the presence of 1 mM of each metal-ion, None = 100; for effect on the enzyme activity, in words: 1 mM, Table 19
[8] = tested on: α-isomaltosyl-transferring enzyme; experiment: Influence of metal ions on α-isomaltosyl-transferring enzyme activity (S1 strain); assay type: biochemical, Arthrobacter ramosus S1 strain; conditions: for Relative activity (%): in the presence of 1 mM of each metal-ion, None = 100; for effect on the enzyme activity, in words: 1 mM, Table 21
Procedure: as §3, §4

Row | SMILES | effect on the enzyme activity, in words [1] | Relative activity (%) [1] [%] | Relative activity (%) [2] [%] | effect on the enzyme activity, in words [3] | Relative activity (%) [3] [%] | Relative activity (%) [4] [%] | Relative activity (%) [5] [%] | Relative activity (%) [6] [%] | Relative activity (%) [7] [%] | Relative activity (%) [8] [%] | effect on the enzyme activity, in words [2] | effect on the enzyme activity, in words [4] | effect on the enzyme activity, in words [5] | effect on the enzyme activity, in words [6] | effect on the enzyme activity, in words [8] | effect on the enzyme activity, in words [7] | Relative activity (%) ([4]; listed as Fe^3+) | Relative activity (%) ([6]; listed as Fe^3+) | Relative activity (%) ([7]; listed as Fe^3+) | Relative activity (%) ([8]; listed as Fe^3+)
1 | [Sr+2] [Sr^2+] | also inhibited | 80 | 101 | also inhibited | 83 | 93 | 85 | 91 | 102 | 101 |  |  |  |  |  |  |  |  |  | 
2 | [Ca+2] [Ca^2+] | activated | 115 | 101 | activated | 109 | 91 | 108 | 100 | 106 | 103 | not activated | not activated | activated | not activated | neither activated |  |  |  |  | 
3 | [Ba+2] [Ba^2+] | also inhibited | 65 | 102 | also inhibited | 65 | 90 | 84 | 102 | 99 | 97 |  |  |  |  |  |  |  |  |  | 
4 | [Cu+2] [Cu^2+] | strongly inhibited | 15 | 57 | strongly inhibited | 23 | 56 | 7 | 15 | 0 | 2 | also inhibited | also inhibited | strongly inhibited | also inhibited | also inhibited | strongly inhibited |  |  |  | 
5 | [Zn+2] [Zn^2+] |  | 92 | 88 |  | 91 | 83 | 82 | 75 | 56 | 78 |  |  |  |  |  |  |  |  |  | 
6 | O=C(O)CN(CCN(CC(=O)O)CC(=O)O)CC(=O)O [EDTA, ethylenediaminetetraacetic acid] | strongly inhibited | 20 | 104 | strongly inhibited | 24 | 98 | 35 | 92 | 2 | 91 | not inhibited | not inhibited | strongly inhibited | not inhibited | neither activated | strongly inhibited |  |  |  | 
7 | [Hg+2] [Hg^2+] | strongly inhibited | 4 | 1 | strongly inhibited | 4 | 2 | 1 | 0.5 | 0 | 0.1 | strongly inhibited | strongly inhibited | strongly inhibited | strongly inhibited | strongly inhibited | strongly inhibited |  |  |  | 
8 | [Pb+2] [Pb^2+] |  | 103 | 89 |  | 101 | 74 | 86 | 69 | 43 | 85 |  |  |  |  |  |  |  |  |  | 
9 | [Co+2] [Co^2+] |  | 100 | 103 |  | 96 | 89 | 93 | 92 | 93 | 91 |  |  |  |  |  |  |  |  |  | 
10 | [Fe+2] [Fe^2+] |  |  |  |  |  |  | 82 |  | 36 |  |  |  |  |  |  |  | 88 | 90 | 35 | 75
